Laboratory results published in patent US10792282B2, “Protein kinase C inhibitors and uses thereof” (Rigel Pharmaceuticals, Inc., priority 2013, dated 2020).
Like-named read-outs stand apart in the source and are kept apart here.

Tested on: PKC mediated IL-2 production
Assay: IL-2 ELISA, human primary T cell, anti CD3+CD28+ (whole cell functional assay)
Type: cell-based
Experimental: Human primary T cells were prepared as follows. Fresh PBMC's from All Cells (Cat # PB002) were re-suspended in RPMI (RPMI-1640 with L-Glutamine; Mediatech, Inc., Herndon Va., cat. #10-040-CM) with 10% FBS and seeded into flasks and incubated at 37° C. for 2 hours to allow the monocytes to adhere. The non-adherent cells were then centrifuged and re-suspended in RPMI medium containing 40 U/ml IL2 and seeded into a flask pre-coated with 1 μg/ml aCD3 and 5 ug/ml aCD28 (Anti-Human CD3, BD Pharmingen Catalog #555336, Anti-Human CD28, Beckman Coulter Catalog # IM1376). The cells were stimulated for 3-4 days, then transferred to a fresh flask and maintained in RPMI (RPMI-1640 with L-Glutamine; Mediatech, Inc., Herndon Va., cat. #10-040-CM) with 10% FBS and 40 U/ml IL-2.
(§1) Human primary T cells (100,000 cells per well) were pre-incubated with or without test compound in RPMI-1640 with L-Glutamine and 10% FBS for 1 hour at 37° C. Cells were then stimulated by transferring them to round-bottom 96-well plates pre-coated with 1 μg/ml αCD3 and 5 μg/ml αCD28. For counter assay, cells were instead stimulated by adding 8× stock solutions of PMA and ionomycin in RPMI-1640 with L-Glutamine and 10% FBS (for final concentrations of 0.5 ng/ml PMA and 0.1 μM ionomycin, both from Calbiochem). Cells were incubated at 37° C. for 24 hours before 100 μL supernatants were harvested for quantification of IL-2 by ELISA using Human IL-2 Duoset ELISA Kit from R and D Systems, Cat. # DY202E.
Compounds 1-90 were tested in a whole cell functional assay for PKC mediated IL-2 production as follows. Human primary T cell isolation and culture: Human primary T cells were prepared as follows. Whole blood was obtained from a healthy volunteer, mixed 1:1 with PBS, layered on to Ficoll Hypaque (Amersham Pharmacia Biotech, Piscataway, N.J., Catalog #17-1440-03) in 2:1 blood/PBS:ficoll ratio and centrifuged for 30 minutes at 4° C. at 1750 rpm. The cells at the serum: ficoll interface were recovered and washed twice with 5 volumes of PBS. These freshly isolated human peripheral blood mononuclear cells were cultured in Yssel's medium containing 40 U/ml IL2 in a flask pre-coated with 1 μg/ml αCD3 and 5 μg/ml αCD28 (Anti-Human CD3, BD Pharmingen Catalog #555336, Anti-Human CD28, Beckman Coulter Catalog # IM1376). The cells were stimulated for 3-4 days, then transferred to a fresh flask and maintained in RPMI (RPMI-1640 with L-Glutamine; Mediatech, Inc., Herndon Va., cat. #10-040-CM) with 10% FBS and 40 U/ml IL-2. The primary T-cells were then washed twice with PBS to remove the IL-2.
as §1, with “Primary T cell stimulation and IL2 ELISA: Human primary” for “Human primary”, “compound in Yssel's medium for 1” for “compound in RPMI-1640 with L-Glutamine and 10% FBS for 1”, “ionomycin in Yssels (for final” for “ionomycin in RPMI-1640 with L-Glutamine and 10% FBS (for final”, “and 0.1 uM ionomycin, both” for “and 0.1 μM ionomycin, both”

[1] = IL-2 production, human primary T cells stimulated with αCD3 and αCD28, 24 hours, IL-2 by ELISA, read-out: EC50
[2] = Homo sapiens, T-cell, 24 h, IL-2 production, human primary T cells stimulated with αCD3 and αCD28, 24 hours, IL-2 by ELISA, read-out: EC50
[3] = Homo sapiens, T-cell, human primary T cells stimulated with αCD3 and αCD28, IL-2 by ELISA, read-out: EC50 (blocked IL-2 production)
[4] = T-cell, IL-2 production, human primary T cells stimulated with αCD3 and αCD28, 24 hours, IL-2 by ELISA, read-out: EC50

EC50 [1] | EC50 [2] | EC50 [3] | SMILES | also measured
< 10 µM |  |  | Cn1nnn(-c2cc(Nc3ncc(F)c(N[C@@H]4CCN5C(CCC5(C)C)C4)n3)c(F)cc2C2CC2)c1=O (mixture of isomers) [Compound 25] | 
< 0.5 µM |  |  | CC(C)N1CCC(Oc2ccc(Nc3ncc(F)c(NC4CC5CCCN5C(C)(C)C4)n3)cc2OC(F)F)CC1 (stereo not drawn) [Compound 9, (R/S, S/R, R/R, S/S)—N^2-(4-(1-isopropylpiperidin-4-yloxy)-3-(difluoromethoxy)phenyl)-5-fluoro-N^4-(octahydro-5,5-dimethylindolizin-7-yl)pyrimidine-2,4-diamine] | 
 | < 0.5 µM | < 10 µM | Fc1cc(C2CC2)c(-n2cnnn2)cc1Nc1ncc(F)c(NC2CCN3CCCC3C2)n1 (racemic) [Compound 24, (±)-N^2-(4-cyclopropyl-2-fluoro-5-(1H-tetrazol-1-yl)phenyl)-5-fluoro-n^4-(octahydroindolizin-7-yl)pyrimidine-2,4-diamine] | 
< 1 µM |  |  | CC(C)N1CCC(Oc2ccc(Nc3ncc(F)c(NC4CC5CCCN5C(C)(C)C4)n3)cc2OC(F)F)CC1 (stereo not drawn) [Compound 8, (R/S, S/R, R/R, S/S)—N^2-(4-(1-isopropylpiperidin-4-yloxy)-3-(difluoromethoxy)phenyl)-5-fluoro-N^4-(octahydro-5,5-dimethylindolizin-7-yl)pyrimidine-2,4-diamine] | 
< 10 µM |  |  | Cn1nnn(-c2cc(Nc3ncc(F)c(N[C@@H]4CCN5[C@@H](CCC5(C)C)C4)n3)c(F)cc2C2CC2)c1=O (single isomer, unassigned) [Compound 36] | 
< 0.5 µM |  |  | CC(C)N1CCC(Oc2ccc(Nc3ncc(F)c(NC4CC5CCCN5C(C)(C)C4)n3)cc2OC(F)F)CC1 (stereo not drawn) [Compound 6, (R/S, S/R, R/R, S/S)—N^2-(4-(1-isopropylpiperidin-4-yloxy)-3-(difluoromethoxy)phenyl)-5-fluoro-N^4-(octahydro-5,5-dimethylindolizin-7-yl)pyrimidine-2,4-diamine] | 

Further lines, the compound ahead of its results:

SMILES | EC50 [1] | EC50 [2] | EC50 [3] | also measured
Cn1nnn(-c2cc(Nc3ncc(F)c(N[C@H]4CCN5[C@@H](CCC5(C)C)C4)n3)c(F)cc2C2CC2)c1=O (single isomer, unassigned) [Compound 37] | < 10 µM |  |  | 
Cn1nnn(-c2cc(Nc3ncc(C#N)c(N[C@@H]4C[C@@H]5CCCN5C(C)(C)C4)n3)c(F)cc2OC(C)(C)CO)c1=O [Compound 84, 4-((7R,8aS)-octahydro-5,5-dimethylindolizin-7-ylamino)-2-(4-(1-hydroxy-2-methylpropan-2-yloxy)-2-fluoro-5-(4,5-dihydro-4-methyl-5-oxotetrazol-1-yl)phenylamino)pyrimidine-5-carbonitrile] |  | < 0.5 µM | < 10 µM | 
COc1cc(Nc2ncc(F)c(NC3CC4CCCN4C(C)(C)C3)n2)cc(-n2nnnc2C)c1 (stereo not drawn) [Compound 11, (R/S, S/R, R/R, S/S)-5-fluoro-N4-(octahydro-5,5-dimethylindolizin-7-yl)N2-(3-methoxy-5-(5-methyl-1H-tetrazol-1-yl)phenyl)pyrimidine-2,4-diamine] | < 10 µM |  |  | 
Cn1nnn(-c2cc(Nc3ncc(F)c(N[C@@H]4C[C@@H]5CCCN5C(C)(C)C4)n3)c(F)cc2OC(C)(C)CO)c1=O [Compound 85, 1-(2-(1-hydroxy-2-methylpropan-2-yloxy)-5-(4-((7R,8aS)-octahydro-5,5-dimethylindolizin-7-ylamino)-5-fluoropyrimidin-2-ylamino)-4-fluorophenyl)-4-methyl-1H-tetrazol-5(4H)-one] |  | < 0.5 µM | < 10 µM | 
Cc1nnnn1-c1cc(Nc2ncc(F)c(NC3CCN4CCCC4C3)n2)c(F)cc1C1CC1 (racemic) [Compound 28, (±)-N2-(4-cyclopropyl-2-fluoro-5-(5-methyl-1H-tetrazol-1-yl)phenyl)-5-fluoro-n^4-(octahydroindolizin-7-yl)pyrimidine-2,4-diamine] |  | < 0.1 µM | < 10 µM | 
CC(C)N1CCC(Oc2ccc(Nc3ncc(F)c(NC4CC5CCCN5C(C)(C)C4)n3)cc2OC(F)F)CC1 (stereo not drawn) [Compound 7, (R/S, S/R, R/R, S/S)—N^2-(4-(1-isopropylpiperidin-4-yloxy)-3-(difluoromethoxy)phenyl)-5-fluoro-N^4-(octahydro-5,5-dimethylindolizin-7-yl)pyrimidine-2,4-diamine] | < 10 µM |  |  | 
CC1(C)CC(Nc2nc(Nc3ccc(O[C@@H]4CCOC4)c(C#N)c3)ncc2F)CC2CCCN21 (single isomer, unassigned) [Compound 59] | < 0.5 µM |  |  | 
CC1(C)CC(Nc2nc(Nc3cc(-n4cnnn4)c(C4CC4)cc3F)ncc2F)CC2CCCN21 (racemic) [Compound 55, (±)-N2-(4-cyclopropyl-2-fluoro-5-(1H-tetrazol-1-yl)phenyl)-5-fluoro-n^4-(octahydro-5,5-dimethylindolizin-7-yl)pyrimidine-2,4-diamine] | < 0.5 µM |  |  | 
C[C@H](O)COc1cc(F)c(Nc2ncc(F)c(N[C@@H]3C[C@@H]4CCCN4C(C)(C)C3)n2)cc1-n1nnn(C)c1=O [Compound 81, 1-(2-((S)-2-hydroxypropoxy)-5-(4-((7R,8aS)-octahydro-5,5-dimethylindolizin-7-ylamino)-5-fluoropyrimidin-2-ylamino)-4-fluorophenyl)-4-methyl-1H-tetrazol-5(4H)-one] |  |  | < 10 µM | EC50 [4]: < 0.1 µM
C[C@@H](O)COc1cc(F)c(Nc2ncc(F)c(N[C@@H]3C[C@@H]4CCCN4C(C)(C)C3)n2)cc1-n1nnn(C)c1=O [Compound 82, 1-(5-(4-((7R,8aS)-5,5-dimethyloctahydroindolizin-7-ylamino)-5-fluoropyrimidin-2-ylamino)-4-fluoro-2-((R)-2-hydroxypropoxy)phenyl)-4-methyl-1H-tetrazol-5(4H)-one] |  |  |  | EC50 [4]: < 0.1 µM; EC50 (T-cell, human primary T cells stimulated with αCD3 and αCD28, IL-2 by ELISA, read-out: EC50 (blocked IL-2 production)): < 10 µM
CC1(C)Oc2ccc(Nc3ncc(F)c(NC4CC5CCCN5C(C)(C)C4)n3)cc2-n2nnnc21 (stereo not drawn) [Compound 4, N2-(4,4-dimethyl-4H-benzo[b]tetrazolo[1,5-d][1,4]oxazin-8-yl)-5-fluoro-N4-(octahydro-5,5-dimethylindolizin-7-amine)pyrimidine-2,4-diamine] | < 10 µM |  |  | 
Cn1nnn(-c2cc(Nc3ncc(C#N)c(N[C@@H]4C[C@@H]5CCCN5C(C)(C)C4)n3)c(F)cc2OCCO)c1=O [Compound 78, 4-((7R,8aS)-octahydro-5,5-dimethylindolizin-7-ylamino)-2-(4-(2-hydroxyethoxy)-2-fluoro-5-(4,5-dihydro-4-methyl-5-oxotetrazol-1-yl)phenylamino)pyrimidine-5-carbonitrile] |  | < 0.1 µM | < 10 µM | 
CC1C(Nc2nc(Nc3cc(-n4nnn(C)c4=O)c(C4CC4)cc3F)ncc2F)CC(C)(C)N2CCCC12 (single isomer, unassigned) [Compound 69, 1-(5-(5-Fluoro-4-(octahydro-5,5,8-trimethylindolizin-7-ylamino)pyrimidin-2-ylamino)-2-cyclopropyl-4-fluorophenyl)-4-methyl-1H-tetrazol-5(4H)-one] |  | < 1 µM | < 10 µM | 
Cn1nnn(-c2cc(Nc3ncc(F)c(NC4CCN5CCCC5C4)n3)c(F)cc2C2CC2)c1=O (stereo not drawn) [Compound 29] | < 10 µM |  |  | 
Cn1nnn(-c2cc(Nc3ncc(F)c(NC4CC5CCCN5C(C)(C)C4)n3)ccc2O[C@@H]2CCOC2)c1=O (stereo partly drawn) [Compound 47, 1-(2-((R)-tetrahydrofuran-3-yloxy)-5-(5-fluoro-4-(octahydro-5,5-dimethylindolizin-7-ylamino)pyrimidin-2-ylamino)phenyl)-4-methyl-1H-tetrazol-5(4H)-one] |  | < 0.1 µM | < 10 µM | 
